This note sets out measurements from ChEMBL document CHEMBL1147265, “Lucidenic acids P and Q, methyl lucidenate P, and other triterpenoids from the fungus Ganoderma lucidum and their inhibitory effects on Epstein-Barr virus activation” (J Nat Prod, 2003).

One series relates to Raji. Briefly: Inhibition of 12-O-tetradecanoylphorbol-13-acetate-induced EBV-early antigen activation in human Raji cells assessed as EA induction at 1000 molar ratio relative to 12-O-tetradecanoylphorbol-13-acetate by immunofluorescence technique. Particulars: human gammaherpesvirus 4. It is filed as cell-based. The arrangement: scale not given: the % may be the effect or the level left.
As to `CC(=O)O[C@@H]1C(=O)C2=C(C(=O)C[C@H]3C(C)(C)[C@@H](O)CC[C@]23C)[C@]2(C)C(=O)C[C@H]([C@H](C)CCC(=O)O)[C@@]12C` [LUDICENIC ACID E2], the Activity was -0%.
Still for that read-out and setting: next, `COC(=O)C(C)CC(=O)C[C@@H](C)[C@H]1CC(=O)[C@@]2(C)C3=C(C(=O)[C@@H](OC(C)=O)[C@]12C)[C@@]1(C)CCC(=O)C(C)(C)[C@@H]1CC3=O` (some centres undefined) [METHYL GANODERATE F]: 2.3%; `COC(=O)CC[C@@H](C)[C@H]1CC(=O)[C@@]2(C)C3=C(C(=O)C[C@]12C)[C@@]1(C)CCC(=O)C(C)(C)[C@@H]1C[C@@H]3O` [METHYL LUCIDENATE A]: -0%; `COC(=O)CC[C@@H](C)[C@H]1CC(=O)[C@@]2(C)C3=C(C(=O)[C@@H](OC(C)=O)[C@]12C)[C@@]1(C)CCC(=O)C(C)(C)[C@@H]1CC3=O` [METHYL LUCIDENATE D2]: 2.2%.

System in the next series: not listed separately
Briefly: Cytotoxicity against human Raji cells assessed as cell viability at 1000 molar ratio by trypan blue staining method. Type of series: cell-based. Particulars: read-out: Activity.
With `CC(=O)O[C@@H]1C(=O)C2=C(C(=O)C[C@H]3C(C)(C)[C@@H](O)CC[C@]23C)[C@]2(C)C(=O)C[C@H]([C@H](C)CCC(=O)O)[C@@]12C` [LUDICENIC ACID E2], the viability at 1000 molar ratio turned out to be 70%.
Turning to `COC(=O)C(C)CC(=O)C[C@@H](C)[C@H]1CC(=O)[C@@]2(C)C3=C(C(=O)[C@@H](OC(C)=O)[C@]12C)[C@@]1(C)CCC(=O)C(C)(C)[C@@H]1CC3=O` (some centres undefined) [METHYL GANODERATE F], the viability at 1000 molar ratio was 70%.
Take `COC(=O)CC[C@@H](C)[C@H]1CC(=O)[C@@]2(C)C3=C(C(=O)C[C@]12C)[C@@]1(C)CCC(=O)C(C)(C)[C@@H]1C[C@@H]3O` [METHYL LUCIDENATE A]: the viability at 1000 molar ratio stood at 70%.
As for `COC(=O)CC[C@@H](C)[C@H]1CC(=O)[C@@]2(C)C3=C(C(=O)[C@@H](OC(C)=O)[C@]12C)[C@@]1(C)CCC(=O)C(C)(C)[C@@H]1CC3=O` [METHYL LUCIDENATE D2], the viability at 1000 molar ratio was 70%.

In a further series the test system is Raji. Briefly: Inhibition of 12-O-tetradecanoylphorbol-13-acetate-induced EBV-early antigen activation in human Raji cells assessed as EA induction at 10 molar ratio relative to 12-O-tetradecanoylphorbol-13-acetate by immunofluorescence technique. The arrangement: scale not given: the % may be the effect or the level left. Type of series: cell-based. As to conditions: human gammaherpesvirus 4.
As to `CC(=O)O[C@@H]1C(=O)C2=C(C(=O)C[C@H]3C(C)(C)[C@@H](O)CC[C@]23C)[C@]2(C)C(=O)C[C@H]([C@H](C)CCC(=O)O)[C@@]12C` [LUDICENIC ACID E2], the Activity is 94%.
The same measure, in the same setting: under `COC(=O)C(C)CC(=O)C[C@@H](C)[C@H]1CC(=O)[C@@]2(C)C3=C(C(=O)[C@@H](OC(C)=O)[C@]12C)[C@@]1(C)CCC(=O)C(C)(C)[C@@H]1CC3=O` (some centres undefined) [METHYL GANODERATE F] stands 100%; under `COC(=O)CC[C@@H](C)[C@H]1CC(=O)[C@@]2(C)C3=C(C(=O)C[C@]12C)[C@@]1(C)CCC(=O)C(C)(C)[C@@H]1C[C@@H]3O` [METHYL LUCIDENATE A], 95%; under `COC(=O)CC[C@@H](C)[C@H]1CC(=O)[C@@]2(C)C3=C(C(=O)[C@@H](OC(C)=O)[C@]12C)[C@@]1(C)CCC(=O)C(C)(C)[C@@H]1CC3=O` [METHYL LUCIDENATE D2], 98%.

Another series concerns Raji. Briefly: Inhibition of 12-O-tetradecanoylphorbol-13-acetate-induced EBV-early antigen activation in human Raji cells assessed as EA induction at 500 molar ratio relative to 12-O-tetradecanoylphorbol-13-acetate by immunofluorescence technique. It is filed as cell-based. On the set-up: scale not given: the % may be the effect or the level left. Particulars: human gammaherpesvirus 4.
Turning to `CC(=O)O[C@@H]1C(=O)C2=C(C(=O)C[C@H]3C(C)(C)[C@@H](O)CC[C@]23C)[C@]2(C)C(=O)C[C@H]([C@H](C)CCC(=O)O)[C@@]12C` [LUDICENIC ACID E2], the Activity was 23.5%.
As for `COC(=O)C(C)CC(=O)C[C@@H](C)[C@H]1CC(=O)[C@@]2(C)C3=C(C(=O)[C@@H](OC(C)=O)[C@]12C)[C@@]1(C)CCC(=O)C(C)(C)[C@@H]1CC3=O` (some centres undefined) [METHYL GANODERATE F], the Activity stood at 26.4%.
On the same count and under the same terms, under `COC(=O)CC[C@@H](C)[C@H]1CC(=O)[C@@]2(C)C3=C(C(=O)C[C@]12C)[C@@]1(C)CCC(=O)C(C)(C)[C@@H]1C[C@@H]3O` [METHYL LUCIDENATE A] stands 24.9%; under `COC(=O)CC[C@@H](C)[C@H]1CC(=O)[C@@]2(C)C3=C(C(=O)[C@@H](OC(C)=O)[C@]12C)[C@@]1(C)CCC(=O)C(C)(C)[C@@H]1CC3=O` [METHYL LUCIDENATE D2], 29.3%.

System in the next series: not listed separately
Briefly: Inhibition of 12-O-tetradecanoylphorbol-13-acetate-induced EBV-early antigen activation in human Raji cells assessed per 32 pmol TPA by immunofluorescence technique. Type of series: cell-based, human gammaherpesvirus 4.
Details: not given
In turn, `CC(=O)O[C@@H]1C(=O)C2=C(C(=O)C[C@H]3C(C)(C)[C@@H](O)CC[C@]23C)[C@]2(C)C(=O)C[C@H]([C@H](C)CCC(=O)O)[C@@]12C` [LUDICENIC ACID E2] yielded an IC50 of 280 molar ratio.
Still for that read-out and setting: next, `COC(=O)C(C)CC(=O)C[C@@H](C)[C@H]1CC(=O)[C@@]2(C)C3=C(C(=O)[C@@H](OC(C)=O)[C@]12C)[C@@]1(C)CCC(=O)C(C)(C)[C@@H]1CC3=O` (some centres undefined) [METHYL GANODERATE F]: 289 molar ratio; `COC(=O)CC[C@@H](C)[C@H]1CC(=O)[C@@]2(C)C3=C(C(=O)C[C@]12C)[C@@]1(C)CCC(=O)C(C)(C)[C@@H]1C[C@@H]3O` [METHYL LUCIDENATE A]: 287 molar ratio.
Still for that read-out and setting: next, `COC(=O)CC[C@@H](C)[C@H]1CC(=O)[C@@]2(C)C3=C(C(=O)[C@@H](OC(C)=O)[C@]12C)[C@@]1(C)CCC(=O)C(C)(C)[C@@H]1CC3=O` [METHYL LUCIDENATE D2]: 290 molar ratio.

The test system of another series is Raji. Briefly: Inhibition of 12-O-tetradecanoylphorbol-13-acetate-induced EBV-early antigen activation in human Raji cells assessed as EA induction at 100 molar ratio relative to 12-O-tetradecanoylphorbol-13-acetate by immunofluorescence technique. It is filed as cell-based. On the set-up: scale not given: the % may be the effect or the level left. As to conditions: human gammaherpesvirus 4.
As to `CC(=O)O[C@@H]1C(=O)C2=C(C(=O)C[C@H]3C(C)(C)[C@@H](O)CC[C@]23C)[C@]2(C)C(=O)C[C@H]([C@H](C)CCC(=O)O)[C@@]12C` [LUDICENIC ACID E2], the Activity was found to be 73.1%.
With `COC(=O)C(C)CC(=O)C[C@@H](C)[C@H]1CC(=O)[C@@]2(C)C3=C(C(=O)[C@@H](OC(C)=O)[C@]12C)[C@@]1(C)CCC(=O)C(C)(C)[C@@H]1CC3=O` (some centres undefined) [METHYL GANODERATE F], the Activity turned out to be 75.3%.
On the same count and under the same terms, next, `COC(=O)CC[C@@H](C)[C@H]1CC(=O)[C@@]2(C)C3=C(C(=O)C[C@]12C)[C@@]1(C)CCC(=O)C(C)(C)[C@@H]1C[C@@H]3O` [METHYL LUCIDENATE A]: 75.1%.
For `COC(=O)CC[C@@H](C)[C@H]1CC(=O)[C@@]2(C)C3=C(C(=O)[C@@H](OC(C)=O)[C@]12C)[C@@]1(C)CCC(=O)C(C)(C)[C@@H]1CC3=O` [METHYL LUCIDENATE D2], the Activity stood at 76.9%.
